Measured values reported in ChEMBL document CHEMBL1201862, “PubChem BioAssay data set” (2004).
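Five compound concentrations were applied to cells in 96-well plates for 48 hours; endpoints were derived by simple linear interpolation of the resulting dose-response curve. Abbreviation: GI50, concentration required for 50% inhibition of growth.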 Active and inactive are the calls of the source. No stated cut-off is given here; in the data, active = GI50 up to about 1.1 µM and inactive = higher.

What was measured:
Assay in all cases: NCI tumour cell line growth inhibition, 48 h
786-0 = tested on: 786-0
A498 = tested on: A498
A549 = tested on: A549
ACHN = tested on: ACHN
BT-549 = tested on: BT-549
CAKI-1 = tested on: CAKI-1
CCRF-CEM = tested on: CCRF-CEM
COLO 205 = tested on: COLO 205
DU-145 = tested on: DU-145
EKVX = tested on: EKVX
HCC 2998 = tested on: HCC 2998
HCT-116 = tested on: HCT-116
HCT-15 = tested on: HCT-15
HL-60 = tested on: HL-60
HOP-62 = tested on: HOP-62
HOP-92 = tested on: HOP-92
HT-29 = tested on: HT-29
Hs-578T = tested on: Hs-578T
IGROV-1 = tested on: IGROV-1
K562 = tested on: K562
KM12 = tested on: KM12
LOX IMVI = tested on: LOX IMVI
M14 = tested on: M14
MCF7 = tested on: MCF7
MDA-MB-231 = tested on: MDA-MB-231
MDA-MB-435 = tested on: MDA-MB-435
MDA-N = tested on: MDA-N
MOLT-4 = tested on: MOLT-4
Malme-3M = tested on: Malme-3M
NCI-H226 = tested on: NCI-H226
NCI-H23 = tested on: NCI-H23
NCI-H460 = tested on: NCI-H460
NCI-H522 = tested on: NCI-H522
NCI/ADR-RES = tested on: NCI/ADR-RES
OVCAR-3 = tested on: OVCAR-3
OVCAR-4 = tested on: OVCAR-4
OVCAR-5 = tested on: OVCAR-5
OVCAR-8 = tested on: OVCAR-8
PC-3 = tested on: PC-3
RPMI-8226 = tested on: RPMI-8226
RXF 393 = tested on: RXF 393
SF-268 = tested on: SF-268
SF-295 = tested on: SF-295
SF-539 = tested on: SF-539
SK-MEL-28 = tested on: SK-MEL-28
SK-MEL-2 = tested on: SK-MEL-2
SK-MEL-5 = tested on: SK-MEL-5
SK-OV-3 = tested on: SK-OV-3
SN12C = tested on: SN12C
SNB-19 = tested on: SNB-19
SNB-75 = tested on: SNB-75
SR = tested on: SR
SW-620 = tested on: SW-620
T47D = tested on: T47D
TK-10 = tested on: TK-10
U-251 = tested on: U-251
UACC-257 = tested on: UACC-257
UACC-62 = tested on: UACC-62
UO-31 = tested on: UO-31
DLD-1 = tested on: DLD-1
LXFL 529 = tested on: LXFL 529
M19-MEL = tested on: M19-MEL
SNB-78 = tested on: SNB-78

C=C1CCCC(C)(C)C1CCC1(C)CCC(C(C)C(=O)OC)OO1 (configuration not stated)
GI50 (786-0): 0.36 µM (active)
GI50 (A498): 5.87 µM (inactive)
GI50 (A549): 1.28 µM (inactive)
GI50 (ACHN): 1.27 µM (inactive)
GI50 (BT-549): 4.9 µM (inactive)
GI50 (CAKI-1): 0.383 µM (active)
GI50 (CCRF-CEM): 2.43 µM (inactive)
GI50 (COLO 205): 4.92 µM (inactive)
GI50 (DU-145): 4.35 µM (inactive)
GI50 (EKVX): 7.91 µM (inactive)
GI50 (HCC 2998): 4.37 µM (inactive)
GI50 (HCT-116): 8.45 µM (inactive)
GI50 (HCT-15): 15.5 µM
GI50 (HL-60): 2.21 µM (inactive)
GI50 (HOP-62): 0.706 µM (active)
GI50 (HOP-92): 0.764 µM (active)
GI50 (HT-29): 2.04 µM (inactive)
GI50 (Hs-578T): 5.57 µM (inactive)
GI50 (IGROV-1): 0.63 µM (active)
GI50 (K562): 8.89 µM (inactive)
GI50 (KM12): 0.948 µM (active)
GI50 (LOX IMVI): 0.471 µM (active)
GI50 (M14): 9.66 µM (inactive)
GI50 (MCF7): > 21.5 µM (inactive)
GI50 (MDA-MB-231): 9.08 µM (inactive)
GI50 (MDA-MB-435): 4.05 µM (inactive)
GI50 (MDA-N): 3.73 µM (inactive)
GI50 (MOLT-4): 8.11 µM (inactive)
GI50 (Malme-3M): > 22.9 µM (inactive)
GI50 (NCI-H226): 6.18 µM (inactive)
GI50 (NCI-H23): 3.78 µM (inactive)
GI50 (NCI-H460): 0.908 µM (active)
GI50 (NCI-H522): 3.34 µM (inactive)
GI50 (NCI/ADR-RES): 7.08 µM (inactive)
GI50 (OVCAR-3): 21.8 µM (inactive)
GI50 (OVCAR-4): 4.9 µM (inactive)
GI50 (OVCAR-5): 6.75 µM (inactive)
GI50 (OVCAR-8): 6.62 µM (inactive)
GI50 (PC-3): 3.74 µM (inactive)
GI50 (RPMI-8226): 5.56 µM (inactive)
GI50 (RXF 393): 4.04 µM (inactive)
GI50 (SF-268): 3.57 µM (inactive)
GI50 (SF-295): 4.48 µM (inactive)
GI50 (SF-539): 6.3 µM (inactive)
GI50 (SK-MEL-28): 20.6 µM (inactive)
GI50 (SK-MEL-2): 10.8 µM (inactive)
GI50 (SK-MEL-5): 5.19 µM (inactive)
GI50 (SK-OV-3): 4.4 µM (inactive)
GI50 (SN12C): 3.77 µM (inactive)
GI50 (SNB-19): 9.08 µM (inactive)
GI50 (SNB-75): 3.15 µM (inactive)
GI50 (SR): 3.02 µM (inactive)
GI50 (SW-620): 7.6 µM (inactive)
GI50 (T47D): 4.32 µM (inactive)
GI50 (TK-10): 4.28 µM (inactive)
GI50 (U-251): 2.94 µM (inactive)
GI50 (UACC-257): > 20.2 µM (inactive)
GI50 (UACC-62): 5.62 µM (inactive)
GI50 (UO-31): 0.748 µM (active)

N#Cc1c(N)nc(SCc2ccccc2)c(C#N)c1-c1ccc(O)cc1
GI50 (786-0): 14 µM (inactive)
GI50 (A498): 13.1 µM (inactive)
GI50 (A549): 11.7 µM (inactive)
GI50 (ACHN): 13.2 µM (inactive)
GI50 (BT-549): 11.6 µM (inactive)
GI50 (CAKI-1): 13.5 µM (inactive)
GI50 (CCRF-CEM): 13.4 µM (inactive)
GI50 (COLO 205): 15.6 µM (inactive)
GI50 (DU-145): 13.5 µM (inactive)
GI50 (EKVX): 9.44 µM (inactive)
GI50 (HCC 2998): > 38.5 µM (inactive)
GI50 (HCT-116): 11.5 µM (inactive)
GI50 (HCT-15): 11.2 µM
GI50 (HL-60): 11.3 µM (inactive)
GI50 (HOP-62): 15.2 µM (inactive)
GI50 (HOP-92): 6.97 µM (inactive)
GI50 (HT-29): 8.22 µM (inactive)
GI50 (Hs-578T): 29.2 µM (inactive)
GI50 (IGROV-1): 11 µM (inactive)
GI50 (K562): 11 µM (inactive)
GI50 (KM12): 11 µM (inactive)
GI50 (LOX IMVI): 16.6 µM (inactive)
GI50 (M14): 14.2 µM (inactive)
GI50 (MCF7): 13.9 µM (inactive)
GI50 (MDA-MB-231): 12.3 µM (inactive)
GI50 (MDA-MB-435): 11.6 µM (inactive)
GI50 (MDA-N): 13 µM (inactive)
GI50 (MOLT-4): 5.53 µM (inactive)
GI50 (Malme-3M): 15.3 µM (inactive)
GI50 (NCI-H226): 22.4 µM (inactive)
GI50 (NCI-H23): 15.9 µM (inactive)
GI50 (NCI-H460): 25.8 µM (inactive)
GI50 (NCI-H522): 12.6 µM (inactive)
GI50 (NCI/ADR-RES): 15.7 µM (inactive)
GI50 (OVCAR-3): 14.6 µM (inactive)
GI50 (OVCAR-4): 10.3 µM (inactive)
GI50 (OVCAR-5): 16.4 µM (inactive)
GI50 (OVCAR-8): 15 µM (inactive)
GI50 (PC-3): 15.5 µM (inactive)
GI50 (RPMI-8226): 5.24 µM (inactive)
GI50 (RXF 393): 15.9 µM (inactive)
GI50 (SF-268): 18.9 µM (inactive)
GI50 (SF-295): 13.6 µM (inactive)
GI50 (SF-539): 19.5 µM (inactive)
GI50 (SK-MEL-28): 13.4 µM (inactive)
GI50 (SK-MEL-2): 15.2 µM (inactive)
GI50 (SK-MEL-5): 11.7 µM (inactive)
GI50 (SK-OV-3): 15.5 µM (inactive)
GI50 (SN12C): 13.8 µM (inactive)
GI50 (SNB-19): 17.3 µM (inactive)
GI50 (SNB-75): 16.8 µM (inactive)
GI50 (SR): 10.9 µM (inactive)
GI50 (SW-620): 15.2 µM (inactive)
GI50 (T47D): 5.96 µM (inactive)
GI50 (TK-10): > 41.8 µM (inactive)
GI50 (U-251): 13.9 µM (inactive)
GI50 (UACC-257): > 37.5 µM (inactive)
GI50 (UACC-62): 15.7 µM (inactive)
GI50 (UO-31): 1.81 µM (inactive)

CCOC(=O)N1CCC(N[C@@H]2c3cc4c(cc3[C@@H](c3cc(OC)c(O)c(OC)c3)[C@H]3C(=O)OC[C@@H]32)OCO4)CC1
GI50 (786-0): 1.15 µM (inactive)
GI50 (A498): 0.358 µM (active)
GI50 (ACHN): 0.431 µM (active)
GI50 (CAKI-1): 0.478 µM (active)
GI50 (CCRF-CEM): 0.697 µM (active)
GI50 (COLO 205): 4.3 µM (inactive)
GI50 (DLD-1): 5.21 µM (inactive)
GI50 (EKVX): 2.69 µM (inactive)
GI50 (HCT-116): 3.4 µM (inactive)
GI50 (HCT-15): 0.796 µM
GI50 (HOP-62): 0.714 µM (active)
GI50 (HOP-92): 0.5 µM (active)
GI50 (HT-29): 4.13 µM (inactive)
GI50 (IGROV-1): 2.9 µM (inactive)
GI50 (K562): 3.98 µM (inactive)
GI50 (KM12): 2.86 µM (inactive)
GI50 (LOX IMVI): 1.26 µM (inactive)
GI50 (LXFL 529): 7.53 µM (inactive)
GI50 (M14): 1.7 µM (inactive)
GI50 (M19-MEL): 3.12 µM (inactive)
GI50 (Malme-3M): 3.46 µM (inactive)
GI50 (NCI-H23): 0.527 µM (active)
GI50 (NCI-H460): 0.065 µM (active)
GI50 (OVCAR-3): 5.06 µM (inactive)
GI50 (OVCAR-8): 1.85 µM (inactive)
GI50 (SF-268): 3.5 µM (inactive)
GI50 (SF-295): 0.499 µM (active)
GI50 (SF-539): 1.23 µM (inactive)
GI50 (SK-MEL-28): 7.08 µM (inactive)
GI50 (SK-MEL-2): 5.81 µM (inactive)
GI50 (SK-MEL-5): 1.48 µM (inactive)
GI50 (SK-OV-3): 0.8 µM (active)
GI50 (SNB-19): 0.69 µM (active)
GI50 (SNB-75): 2.67 µM (inactive)
GI50 (SNB-78): 10.2 µM (inactive)
GI50 (SW-620): 2.58 µM (inactive)
GI50 (UACC-257): 5.16 µM (inactive)
GI50 (UACC-62): 1.03 µM (active)
GI50 (UO-31): 1.02 µM (active)
